Target: MC4-R (Homo sapiens, UniProt P32245)
Experiment: cAMP Scintillation Proximity Assay in cells expressing MC4-R
Type: cell-based
Conditions: intercellular cAMP measured with SPA kit, read-out: in vitro potency (as measured by EC50 value)
Procedure: EC50 values of test compounds were determined by treating cells expressing MC4-R with test compound and lysing the cells and measuring intercellular cAMP concentration with an Amersham-Pharmacia RPA-559 cAMP Scintillation Proximity Assay (SPA) kit. The following compounds were synthesized and tested according to this assay. The following compounds are merely illustrative and should not be construed as limiting of the instant invention.

Sequence of MC4-R (P32245 whole entry, species assumed): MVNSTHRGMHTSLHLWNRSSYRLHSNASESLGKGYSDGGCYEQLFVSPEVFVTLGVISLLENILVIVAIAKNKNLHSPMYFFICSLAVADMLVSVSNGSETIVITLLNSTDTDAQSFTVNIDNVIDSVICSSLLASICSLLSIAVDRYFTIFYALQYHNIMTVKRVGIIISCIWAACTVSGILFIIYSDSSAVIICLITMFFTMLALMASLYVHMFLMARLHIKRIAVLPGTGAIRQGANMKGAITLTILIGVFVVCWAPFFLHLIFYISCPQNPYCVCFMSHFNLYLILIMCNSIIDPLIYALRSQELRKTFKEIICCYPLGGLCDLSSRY

EC50: < 3 µM
Compound: C[C@@H]1[C@@H](N=C(Nc2ccc3c(c2)CCN(CCc2ccc(Cl)cc2Cl)C3=O)N2CCN[C@@H](C)C2)C[C@H]2C[C@@H]1C2(C)C [Example 22, (3S)—N-{2-[2-(2,4-dichlorophenyl)ethyl]-1-oxo-1,2,3,4-tetrahydroisoquinolin-6-yl}-3-methyl-N′-[(1S,2S,5R)-2,6,6-trimethylbicyclo[3.1.1]hept-3-yl]piperazine-1-carboximidamide]
